Source: patent publication US11566003B2, “Isoquinolines as inhibitors of HPK1” (priority 2017, dated 2023)

Experiments:
[1] = biological target: HPK1 (Homo sapiens (Human), UniProt Q92918); test: biochemical; format: binding
[2] = biological target: HPK1 (Homo sapiens (Human), UniProt Q92918, S171E/T165E); test: biochemical

SMILES	Ki [1] [nM]	Ki [2] [nM]
Cc1c(NC(C)C)cncc1-c1cc(N)c2cnc(NC(=O)[C@@H]3C[C@H]3C#N)cc2c1 (racemic) [Compound 186, (±)-trans-N-(8-amino-6-[4-methyl-5-[(propan-2-yl)amino]pyridin-3-yl]isoquinolin-3-yl)-2-cyanocyclopropane-1-carboxamide]	6.96	
Cc1c(N)cncc1-c1cc2cc(NC(=O)[C@@H]3C[C@H]3CC#N)ncc2c(N)c1Cl (racemic) [Compound 209, (±)-trans-N-(8-amino-6-(5-amino-4-methylpyridin-3-yl)-7-chloroisoquinolin-3-yl)-2-(cyanomethyl)cyclopropanecarboxamide]	0.0405	
C[C@H]1Cc2c(cncc2-c2cc(N)c3cnc(NC(=O)C4CC4)cc3c2)N1 [Compound 189, (S)—N-(8-amino-6-(2-methyl-2,3-dihydro-1H-pyrrolo[2,3-c]pyridin-4-yl)isoquinolin-3-yl)cyclopropanecarboxamide]	5.44	
